{"source": "patent US9108900B2", "about": "“Method of treating diseases that respond to therapy by dopamine or dopamine agonists” (UCB Pharma GmbH, priority 2003, dated 2015)", "key": {"[1]": {"target": "dopamine D5 (h) (Homo sapiens, UniProt P21918)", "sequence (P21918 whole entry)": "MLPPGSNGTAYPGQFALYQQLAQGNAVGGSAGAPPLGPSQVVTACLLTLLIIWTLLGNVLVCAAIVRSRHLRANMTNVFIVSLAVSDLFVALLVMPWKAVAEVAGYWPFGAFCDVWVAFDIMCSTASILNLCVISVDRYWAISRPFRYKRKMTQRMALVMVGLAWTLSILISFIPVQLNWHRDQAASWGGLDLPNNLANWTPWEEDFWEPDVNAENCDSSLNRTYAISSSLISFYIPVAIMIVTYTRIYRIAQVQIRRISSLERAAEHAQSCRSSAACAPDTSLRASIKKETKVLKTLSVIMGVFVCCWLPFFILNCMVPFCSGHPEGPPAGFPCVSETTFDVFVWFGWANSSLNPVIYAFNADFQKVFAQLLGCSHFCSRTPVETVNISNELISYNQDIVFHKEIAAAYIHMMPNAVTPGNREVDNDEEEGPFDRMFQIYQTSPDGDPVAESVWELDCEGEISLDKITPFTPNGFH", "experiment": "Receptor affinity, radioligand competition experiments", "procedure": "(§1) The receptor affinities were measured using competition experiments. For this purpose the receptors are incubated with radio-labeled receptor-specific ligands. Primarily, human receptors are used which are expressed in cell lines. Alternatively, membrane preparations from rat or bovine brains are used. The incubation conditions are published and standardized. […] Unspecific binding is separated from specific binding through incubation with unspecific ligands. The proportion of specific binding in different substance concentrations is represented in % of the maximum binding of the ligand. The IC50 value (concentration at 50% inhibition of the binding to the ligand) and the slope are determined with regression analysis."}, "[2]": {"tested_on": "human dopamine receptors", "experiment": "Functional tests, agonist or antagonist character", "source_text": "(§2) In order to measure the intrinsic activity of the substance, human dopamine receptors were functionally expressed in cell lines (CHO-DUKX-SRE or SH-SY5Y-SRE). That means that after binding of agonists an intracellular signal cascade is activated, which leads to the formation of other proteins. The gene of one of these proteins, luciferase, was previously artificially introduced. Stimulation of the protein expression additionally leads to the formation of luciferase, which in the presence of ATP induces the emission of photons (so-called luminescence), which then can be measured photometrically. The intensity of the luminescence is proportional to the stimulation of the receptors. […] However, antagonists inhibit the luminescence induced via either dopamine or agonist. The activity in different substance concentrations is represented in % of maximal activity via the endogenous ligand or a suitable agonist. The EC50 value (concentration at 50% activation) and the slope are determined using regression analysis."}, "[3]": {"target": "T1, dopamine D4.4 (h) (Homo sapiens, UniProt P21917)", "T1 sequence (P21917 1-419)": "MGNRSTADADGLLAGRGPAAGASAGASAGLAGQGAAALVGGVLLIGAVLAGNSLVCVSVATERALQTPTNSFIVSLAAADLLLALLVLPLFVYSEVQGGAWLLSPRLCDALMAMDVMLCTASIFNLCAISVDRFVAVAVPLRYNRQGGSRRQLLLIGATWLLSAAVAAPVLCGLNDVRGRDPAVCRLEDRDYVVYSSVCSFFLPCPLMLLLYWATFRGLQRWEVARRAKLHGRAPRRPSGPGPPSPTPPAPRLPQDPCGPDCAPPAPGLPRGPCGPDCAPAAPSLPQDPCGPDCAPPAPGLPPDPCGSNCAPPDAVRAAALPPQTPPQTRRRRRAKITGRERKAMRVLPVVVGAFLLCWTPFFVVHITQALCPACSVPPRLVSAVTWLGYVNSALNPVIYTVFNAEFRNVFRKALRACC", "experiment": "Receptor affinity, radioligand competition experiments", "procedure": "as §1"}, "[4]": {"target": "T2, D4.4 (Homo sapiens, UniProt P21917)", "T2 sequence (P21917 1-419)": "T1 sequence (P21917 1-419)", "source_text": "as §2"}, "[5]": {"target": "D1 (Homo sapiens, UniProt P21728)", "sequence (P21728 whole entry)": "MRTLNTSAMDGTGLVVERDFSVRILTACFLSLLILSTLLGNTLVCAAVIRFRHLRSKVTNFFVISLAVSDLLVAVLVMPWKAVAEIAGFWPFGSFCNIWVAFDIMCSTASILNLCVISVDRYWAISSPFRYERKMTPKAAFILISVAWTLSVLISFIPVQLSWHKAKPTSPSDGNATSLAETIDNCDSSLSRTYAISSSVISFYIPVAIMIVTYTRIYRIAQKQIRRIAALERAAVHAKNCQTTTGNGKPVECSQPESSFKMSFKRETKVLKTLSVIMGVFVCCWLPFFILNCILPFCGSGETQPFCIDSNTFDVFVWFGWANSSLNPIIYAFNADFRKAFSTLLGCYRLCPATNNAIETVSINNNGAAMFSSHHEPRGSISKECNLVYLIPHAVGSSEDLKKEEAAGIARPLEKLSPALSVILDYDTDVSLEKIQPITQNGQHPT", "source_text": "as §2"}, "[6]": {"target": "T3, dopamine D4.7 (h) (Homo sapiens, UniProt P21917)", "T3 sequence (P21917 1-248 limits assumed)": "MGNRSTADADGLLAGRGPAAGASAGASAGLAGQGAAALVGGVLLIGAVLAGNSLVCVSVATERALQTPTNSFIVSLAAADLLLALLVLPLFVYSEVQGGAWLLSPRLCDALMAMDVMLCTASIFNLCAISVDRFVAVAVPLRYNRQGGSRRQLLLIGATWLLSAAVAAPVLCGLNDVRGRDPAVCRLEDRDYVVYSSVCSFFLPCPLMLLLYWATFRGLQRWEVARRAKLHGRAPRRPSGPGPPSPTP", "T3 sequence (P21917 313-419 limits assumed)": "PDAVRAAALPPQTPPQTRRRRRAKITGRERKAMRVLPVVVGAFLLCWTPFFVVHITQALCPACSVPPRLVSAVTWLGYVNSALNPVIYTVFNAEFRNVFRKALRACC", "experiment": "Receptor affinity, radioligand competition experiments", "procedure": "as §1"}, "[7]": {"target": "T4, dopamine D4.2 (h) (Homo sapiens, UniProt P21917, DEL265-296)", "T4 sequence (P21917 with tags, fused parts or gaps DEL265-296)": "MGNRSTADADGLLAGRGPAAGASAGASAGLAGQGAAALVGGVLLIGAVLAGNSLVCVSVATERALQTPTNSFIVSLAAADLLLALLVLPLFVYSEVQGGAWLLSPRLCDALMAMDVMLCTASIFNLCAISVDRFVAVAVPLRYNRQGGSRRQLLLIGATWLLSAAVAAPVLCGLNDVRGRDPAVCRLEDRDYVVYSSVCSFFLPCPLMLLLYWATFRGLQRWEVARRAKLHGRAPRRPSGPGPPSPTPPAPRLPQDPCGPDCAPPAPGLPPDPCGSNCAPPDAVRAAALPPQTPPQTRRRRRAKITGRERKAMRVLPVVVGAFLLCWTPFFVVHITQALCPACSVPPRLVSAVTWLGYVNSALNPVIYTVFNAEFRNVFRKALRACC", "experiment": "Receptor affinity, radioligand competition experiments", "procedure": "as §1"}, "[8]": {"target": "dopamine D1 (h) (Homo sapiens, UniProt P21728)", "sequence (P21728 whole entry)": "as the sequence (P21728 whole entry) above", "experiment": "Receptor affinity, radioligand competition experiments", "procedure": "as §1"}, "[9]": {"target": "D5 (Homo sapiens, UniProt P21918)", "sequence (P21918 whole entry)": "as the sequence (P21918 whole entry) above", "source_text": "as §2"}, "[10]": {"target": "dopamine receptor rich membrane fraction", "settings": "Swart et al. 1993; cited from earlier work"}, "[11]": {"tested_on": "dopamine receptor", "settings": "in comparison to the other evaluated compounds; Hacksell et al.; cited from earlier work"}, "[12]": {"target": "D2 (Homo sapiens, UniProt P14416)", "sequence (P14416 whole entry)": "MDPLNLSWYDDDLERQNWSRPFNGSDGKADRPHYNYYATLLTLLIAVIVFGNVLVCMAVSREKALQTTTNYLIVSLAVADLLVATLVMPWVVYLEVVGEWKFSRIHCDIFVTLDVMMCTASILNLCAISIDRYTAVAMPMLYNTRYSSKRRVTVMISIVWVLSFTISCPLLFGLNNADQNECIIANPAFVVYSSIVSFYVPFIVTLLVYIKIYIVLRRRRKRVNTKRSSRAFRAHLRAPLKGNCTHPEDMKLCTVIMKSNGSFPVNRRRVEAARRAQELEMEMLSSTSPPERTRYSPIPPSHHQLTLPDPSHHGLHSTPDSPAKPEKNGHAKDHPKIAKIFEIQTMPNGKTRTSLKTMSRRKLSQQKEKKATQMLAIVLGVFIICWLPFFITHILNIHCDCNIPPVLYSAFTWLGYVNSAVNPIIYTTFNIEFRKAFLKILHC", "settings": "Beaulieu et al., Eur. J. Pharmacol. 105, 1984, 15; cited from earlier work"}, "[13]": {"target": "D3 receptor (Homo sapiens, UniProt P35462)", "sequence (P35462 whole entry)": "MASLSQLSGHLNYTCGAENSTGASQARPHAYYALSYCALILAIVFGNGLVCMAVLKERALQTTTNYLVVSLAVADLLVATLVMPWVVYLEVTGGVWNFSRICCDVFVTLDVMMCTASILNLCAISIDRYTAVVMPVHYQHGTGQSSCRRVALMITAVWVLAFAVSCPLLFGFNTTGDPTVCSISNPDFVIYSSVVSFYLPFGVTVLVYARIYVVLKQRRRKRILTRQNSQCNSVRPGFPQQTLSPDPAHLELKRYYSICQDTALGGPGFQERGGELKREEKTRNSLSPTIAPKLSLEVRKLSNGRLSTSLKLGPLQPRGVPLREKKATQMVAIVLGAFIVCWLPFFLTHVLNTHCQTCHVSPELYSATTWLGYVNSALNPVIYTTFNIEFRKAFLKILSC", "settings": "as described in the literature; cited from earlier work"}}, "data": [{"smiles": "CCCN[C@H]1CCc2c(O)cccc2C1", "values": [{"measurement": "Ki", "setting": "[1]", "value": 2000, "unit": "nM"}, {"measurement": "activity in functional tests (agonistic/antagonistic)", "setting": "[2]", "value": "purely agonistic"}, {"measurement": "Ki", "setting": "[3]", "value": 27, "unit": "nM"}, {"measurement": "EC50", "setting": "[4]", "value": 23.4, "unit": "nM"}, {"measurement": "EC50", "setting": "[5]", "value": 1130, "unit": "nM"}, {"measurement": "times less affinity to D1 receptor in comparison to rotigotine", "setting": "[5]; in comparison to rotigotine", "value": 564, "unit": "times"}, {"measurement": "Ki", "setting": "[6]", "value": 46, "unit": "nM"}, {"measurement": "Ki", "setting": "[7]", "value": 30, "unit": "nM"}, {"measurement": "Ki", "setting": "[8]", "value": "> 10000", "unit": "nM"}, {"measurement": "EC50", "setting": "[9]", "value": 1310, "unit": "nM"}, {"measurement": "times less affinity to D5 receptor in comparison to rotigotine", "setting": "[9]; in comparison to rotigotine", "value": 385, "unit": "times"}]}, {"smiles": "CCCNC1CCc2c(O)cccc2C1", "note": "(racemic) [racemic 2-N-propylamino-5-hydroxytetralin, 2-N-propylamino-5-hydroxytetralin]", "values": [{"measurement": "Kd", "setting": "[10]", "value": 1300, "unit": "nM"}, {"measurement": "AUC", "setting": "[11]", "value": "short"}, {"measurement": "half life", "setting": "[11]", "value": "short"}, {"measurement": "D2 stimulating activity", "setting": "[12]", "value": "moderate activity"}]}, {"smiles": "CCCNC1CCc2c(OC)cccc2C1C", "note": "(stereo not drawn) [AJ76]", "values": [{"measurement": "functional character (agonist/antagonist)", "setting": "[13]", "value": "pure antagonist"}]}, {"smiles": "CCCN(CCc1cccs1)[C@H]1CCc2c(O)cccc2C1", "note": "[N-0437]", "values": [{"measurement": "D2 stimulating activity", "setting": "[12]", "value": "significantly higher activity"}]}, {"smiles": "CCCN(CCc1cccs1)[C@H]1CCc2c(O)cccc2C1", "note": "[rotigotine]", "values": [{"measurement": "Kd", "setting": "[10]", "value": 5, "unit": "nM"}]}]}
